In patent publication US20100035756A1, “TRIAZOLOPHYRIDINE DERIVATIVES AS HERBICIDES” (SYNGENTA LIMITED, priority 2006, published 2010):

Legend:
Assay type in all cases: in vivo
[1] = tested on: Monocotyledonous and dicotyledonous test plants; assay: Herbicidal action prior to emergence of the plants (pre-emergence action), Example B1; settings: preemergence application, 250 g/ha, evaluated after 4 weeks, 100%=total damage, 0%=no damage
Procedure, shortened: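 Monocot and dicot species were sown in standard soil and sprayed pre-emergence, right after sowing, at 250 g/ha as an aqueous suspension or emulsion. Plants were grown in a greenhouse for 4 weeks. Damage was scored from 0% (none) to 100% (total).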

Stellaria media = assay: Microscreen (pre-emergence), Example B3; settings: preemergent application, 250 g/ha, evaluated 8 days later, 100%=total damage
Amaranthus retroflexus = assay: Microscreen (pre-emergence), Example B3; settings: preemergent application, 250 g/ha, evaluated 8 days later, 100%=total damage
Digitaria sanguinalis = assay: Microscreen (pre-emergence), Example B3; settings: preemergent application, 250 g/ha, evaluated 8 days later, 100%=total damage
[2] = tested on: Monocotyledonous and dicotyledonous test plants; assay: Herbicidal action after emergence of the plants (post-emergence herbicidal action), Example B2; settings: postemergent application, 125 g/ha, 2- to 3-leaf stage, evaluated after 2-3 weeks, 100%=total damage
Procedure, shortened: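 Sprayed at 2- to 3-leaf stage as aqueous suspension (wettable powder) or emulsion (emulsifiable concentrate) at 125 g/ha; plants grown on in greenhouse. Damage scored after 2–3 weeks (100% = total damage, 0% = none).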

Solanum nigrum = assay: Microscreen (pre-emergence), Example B3; settings: preemergent application, 250 g/ha, evaluated 8 days later, 100%=total damage
Setaria italica = assay: Microscreen (pre-emergence), Example B3; settings: preemergent application, 250 g/ha, evaluated 8 days later, 100%=total damage
Nasturtium officinale = assay: Microscreen (pre-emergence), Example B3; settings: preemergent application, 250 g/ha, evaluated 8 days later, 100%=total damage
Agrostis tenuis = assay: Microscreen (pre-emergence), Example B3; settings: preemergent application, 250 g/ha, evaluated 8 days later, 100%=total damage

SMILES: Cc1nnc2c(C(=O)C3C(=O)C4CCC(C4)C3=O)ccc(C(F)(F)F)n12 (centres unmarked) [Compound 1.4, 3-(3-Methyl-5-trifluoromethyl-[1,2,4]triazolo[4,3-a]pyridine-8-carbonyl)-bicyclo[3.2.1]octane-2,4-dione]
- herbicidal damage, ABUTH ([1]; ABUTH): 100%
- herbicidal damage, AMARE ([1]; AMARE): 100%
- herbicidal damage, BRAPL ([1]; BRAPL): 70%
- herbicidal damage, DIGSA ([1]; DIGSA): 100%
- herbicidal damage, ECHCG ([1]; ECHCG): 90%
- herbicidal damage, SETFA ([1]; SETFA): 90%
- herbicidal damage, STEME ([1]; STEME): 100%
- herbicidal damage, VERPE ([1]; VERPE): 100%
- herbicidal damage, Stellaria (Stellaria media): 80%
- herbicidal damage, Amaranthus (Amaranthus retroflexus): 90%
- herbicidal damage, Digitaria (Digitaria sanguinalis): 90%
- herbicidal damage, ABUTH ([2]; ABUTH): 70%
- herbicidal damage, AMARE ([2]; AMARE): 70%
- herbicidal damage, CHEAL ([2]; CHEAL): 90%
- herbicidal damage, DIGSA ([2]; DIGSA): 80%
- herbicidal damage, SETFA ([2]; SETFA): 90%
- herbicidal damage, SINAR ([2]; SINAR): 80%
- herbicidal damage, VERPE ([2]; VERPE): 80%
- herbicidal damage, XANST ([2]; XANST): 70%
- herbicidal damage, Solanum (Solanum nigrum): 90%
- herbicidal damage, Setaria (Setaria italica): 70%
- herbicidal damage, Nasturtium (Nasturtium officinale): 90%
- herbicidal damage, Agrostis (Agrostis tenuis): 50%
